Tested on: ovarian cancer cell lines
Assay: Cell growth inhibition (viable cell count, trypan blue exclusion) of ovarian cancer cell lines after seven days with inhibitor; logIC50 modelled against alteration status
Format: cell-based, human
Settings: for increased sensitivity to PARP inhibition: from difference of mean log IC50
Experimental: To begin to understand the relationship between genomic, epigenetic and expression alterations and response to pathway inhibitors, a screening platform was developed for evaluating cellular proliferation in the presence of candidate therapeutic agents. As an example of the analyses that can be performed and the genotype-phenotype connections that can be obtained, IC20, IC50, and IC80 were measured after seven days of incubation for three inhibitors, GNE-493, BMN673, and MEK162, targeting PI3K, PARP, and MEK proteins, respectively (Table 11). Aggregating the molecular information from multiple platforms to the gene level, analyses was limited to genes that were altered in three or more of the 45 cell lines. Alterations that tend to be mutually exclusive between cell lines were combined, including genes in the PI3K pathway (PIK3CA and PPP2R1A) and the genes in the TGFBR pathway (SMAD3 and SMAD4). As tumors with homologous recombination deficiencies (HRD) have been known to be sensitive to PARP inhibitors, covariates summarizing the extent of genome-wide structural alterations for the PARP inhibitor BMN673 were additionally added. A priori it was hypothesized that most alterations would not modulate response to the targeted inhibitors. Implementing a Bayesian model averaging approach to variable selection as has been considered for other biomarkers (see, e.g., Viallefont et al., 2001 Statistics in Medicine 20:3215-3230; Neto et al., 2014 Pacific Symposium on Biocomputing. Pacific Symposium on Biocomputing: 27-38; and Meisner et al., 2018 Biomarker research 6:3), a positive prior probability that the coefficient for each gene is exactly zero was specified. Given the genes or combination of genes and structural variant summaries, the space of possible single- and multi-variate models for logIC50 was explored by Markov Chain Monte Carlo. Relevant posterior summaries available for each inhibitor include the probability that the regression coefficient is non-zero and the posterior distribution of the regression coefficients.
Cell lines were obtained from multiple sources (Table 1). Cells were plated into 24-well tissue culture plates at a density of 2×10^5 to 5×10^5 cells per well and grown in cell-line-specific medium without or with increasing concentrations of their respective drugs (ranging between […]).
Cells were counted on day 7 using an automated cell viability assay (Vi-CELL XR Cell Viability Analyzer, Beckman Coulter, Fullerton, Calif., USA), a video imaging system that uses an automated trypan blue exclusion protocol. Both adherent and floating viable cells were counted for treatment and control wells. Growth inhibition (GI) was calculated as a percentage of untreated controls. The log of the fractional GI was then plotted against the log of the drug concentration and the IC50 values were interpolated from the resulting linear regression curve fit (CalcuSyn; Biosoft, Ferguson, Mo., USA). Experiments were performed thrice in duplicate for each cell line.
Bayesian model averaging: models of the form
were considered where Ci denotes the logIC50 and xi;j an indicator for the alteration status (0 not altered, 1 altered) of feature j in cell line i. The regression coefficient for feature j is the product of a binary indicator zj and a real number hj. A modified g-prior was used for γ such that γj was zero whenever zj was zero. For the vector of γ's with non-zero z's, a multivariate normal prior was used. The space of the possible 2p models was explored using a Gibbs sampler. The binary features comprising the x's included somatic mutations, somatic structural variants (deletions, amplifications, in-frame fusions), methylation, and under- or over-expression. For the PARP inhibitor, the number of intra-chromosomal rearrangements and the HRD score as potential markers for HRD were additionally considered. […]

Compound: Cn1ncnc1[C@H]1c2n[nH]c(=O)c3cc(F)cc(c23)N[C@@H]1c1ccc(F)cc1 [BMN673, talazoparib]
- increased sensitivity to PARP inhibition (cell lines with MYC amplification vs without, 90% CI: 99%-64%): 93%
- association with sensitivity to PARP inhibition (cell lines with inactivating BRCA1/2 mutations, HRD score, PARP1 expression): trend towards increased sensitivity to PARP inhibition but were not statistically significant
- increased sensitivity to PARP inhibition (cell lines with increased number of genome-wide rearrangements vs without, 90% CI, 96%-43%): 86%

Compound: CC(C)(O)c1cc2nc(-c3cnc(N)nc3)nc(N3CCOCC3)c2s1 [GNE-493]
- increased sensitivity (cancer cell lines with mutations in PARP1 or PPP2R1A (so in the source)): 66%
- difference in mean logIC50 by alteration status (cell lines with mutations in PIK3CA or PPP2R1A vs without, 7 days incubation): −0.63
- increased sensitivity to the inhibitor (cell lines with mutations in PIK3CA or PPP2R1A vs without, FIG. 6B legend, 90% HPD: 5-72): 48%

Compound: Cn1cnc2c(F)c(Nc3ccc(Br)cc3F)c(C(=O)NOCCO)cc21 [MEK-162, binimetinib]
- increased sensitivity (cell lines with mutations or deletions in SMAD3 or SMAD4): 89%

— US20210355545A1, “METHODS AND MATERIALS FOR ASSESSING AND TREATING CANCER” (The Johns Hopkins University, priority 2018, published 2021)
